Tests used:
Nonstructural protein 5A = biological target: T1, Nonstructural protein 5A (Hepatitis C virus, UniProt Q5L478); assay: Inhibition of NS5A in Hepatitis C virus subtype 1b replicon infected in human HuH7 cells assessed as reduction in viral replication; format: cell-based; settings: huh-7
T1 sequence (Q5L478 whole entry): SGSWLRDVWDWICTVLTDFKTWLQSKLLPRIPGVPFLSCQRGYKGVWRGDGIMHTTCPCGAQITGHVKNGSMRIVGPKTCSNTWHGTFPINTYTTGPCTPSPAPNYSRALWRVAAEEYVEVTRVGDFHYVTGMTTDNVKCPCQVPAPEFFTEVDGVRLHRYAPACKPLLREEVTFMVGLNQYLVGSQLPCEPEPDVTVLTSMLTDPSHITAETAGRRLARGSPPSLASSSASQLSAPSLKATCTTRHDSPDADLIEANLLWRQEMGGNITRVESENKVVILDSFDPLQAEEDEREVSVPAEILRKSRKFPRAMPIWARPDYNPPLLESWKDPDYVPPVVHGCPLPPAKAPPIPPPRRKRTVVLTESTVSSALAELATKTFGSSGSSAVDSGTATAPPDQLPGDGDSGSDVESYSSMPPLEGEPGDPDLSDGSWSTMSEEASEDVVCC

[1] = Inhibition of NS5A Q30K mutant in Hepatitis C virus subtype 1a replicon infected in human HuH7 cells assessed as reduction in viral replication; format: cell-based; settings: Huh-7
[2] = Inhibition of NS5A in Hepatitis C virus subtype 1b replicon assessed as reduction in viral replication using Ac-Asp-Glu-Asp (EDANS)-Glu-Glu-Abu-(COO) Ala-Ser-Lys (DABCYL)-NH2 as substrate measured after 72 hrs by FRET assay
[3] = Inhibition of NS5A Q30K mutant in Hepatitis C virus subtype 1a replicon assessed as reduction in viral replication using Ac-Asp-Glu-Asp (EDANS)-Glu-Glu-Abu-(COO) Ala-Ser-Lys (DABCYL)-NH2 as substrate measured after 72 hrs by FRET assay

Row | SMILES | EC50 (Nonstructural protein 5A) | other results
1 | CCCC(=O)Nc1ccc(-c2ccc(-c3c[nH]c([C@@H]4CCCN4C(=O)[C@H](NC(=O)N4CCCC4)c4ccccc4)n3)cc2)cc1 | Not Active | –
2 | CCCC(=O)Nc1ccc(-c2ccc(-c3c[nH]c([C@@H]4CCCN4C(=O)[C@H](NC(=O)c4ccccc4NC(=O)OCc4ccccc4)c4ccccc4)n3)cc2)cc1 | Not Active | –
3 | CCCC(=O)Nc1ccc(-c2ccc(-c3c[nH]c([C@@H]4CCCN4C(=O)[C@H](NC(=O)c4ccc(NC(=O)OCc5ccccc5)cc4)c4ccccc4)n3)cc2)cc1 | Not Active | –
4 | COC1CCN(C(=O)Nc2ccc(-c3ccc(-c4c[nH]c([C@@H]5CCCN5C(=O)[C@H](NC(=O)N5CC[C@@H](NC(=O)OCc6ccccc6)C5)c5ccccc5)n4)cc3)cc2)CC1 | – | EC50 [1]: 4.7 nM
5 | CCCC(=O)Nc1ccc(-c2ccc(-c3c[nH]c([C@@H]4CCCN4C(=O)[C@H](NC(=O)CCCCCCc4ccccc4)c4ccccc4)n3)cc2)cc1 | Not Active | –
6 | CCCC(=O)Nc1ccc(-c2ccc(-c3c[nH]c([C@@H]4CCCN4C(=O)[C@H](NC(=O)N4CCC[C@H](NC(=O)OCc5ccccc5)C4)c4ccccc4)n3)cc2)cc1 | Not Active | –
7 | CCCC(=O)Nc1ccc(-c2ccc(-c3c[nH]c([C@@H]4CCCN4C(=O)[C@H](NC(=O)c4ccccc4)c4ccccc4)n3)cc2)cc1 | Not Active | –
8 | CCCC(=O)Nc1ccc(-c2ccc(-c3c[nH]c([C@@H]4CCCN4C(=O)[C@H](NC(=O)CCCc4ccccc4)c4ccccc4)n3)cc2)cc1 | Not Active | –
9 | COC(=O)N[C@H](C(=O)N1CCC[C@H]1c1ncc(-c2ccc(-c3ccc(-c4cnc([C@@H]5CCCN5C(=O)[C@@H](NC(=O)OC)C(C)C)[nH]4)cc3)cc2)[nH]1)C(C)C [DACLATASVIR] | – | EC50 [2]: 0.009 nM; EC50 [3]: 1230 nM

— ChEMBL document CHEMBL4616610, “Discovery of a novel unsymmetrical structural class of HCV NS5A inhibitors with low picomolar antiviral activity” (Bioorg Med Chem Lett, 2020)
